The values below come from patent US5948814A, “Genistein for the treatment of cystic fibrosis” (priority 1998, dated 1999).

In one data set the target is ΔF508-CFTR (Homo sapiens, UniProt P13569, DEL508-508). In words: Patch cramming, ΔF508-CFTR patch excised and crammed into NIH/3T3-CFTR cell. The data set is classed as cell-based. Details: expressed in transfected cells; host or cells: NIH/3T3 cells, stably transfected (NIH/3T3-ΔF508, gift of Dr. Richard Mulligan). Conditions: ΔF508-CFTR crammed into NIH/3T3-CFTR cell; 10 μM forskolin, 50 μM genistein; n=2. From the text:
Downward deflections represent channel opening.

For the next data set, the system named is CFTR. Description: In vivo phosphorylation of CFTR (32P) versus I- efflux, NIH/3T3-CFTR cells. It is filed as cell-based. The settings on record: 50 μM genistein; 0-10 μM forskolin; all phosphorylation levels. How it is done:
I^- efflux: I^- efflux was measured as described previously [Reenstra et al., 1996]. Briefly, cells were incubated for 30 minutes with 37° C. I^- efflux buffer [(in mM) 141 NaCl, 4 KCl, 1 KH2 PO4, 0.9 MgCl2, 1.7 CaCl2. 10 N-2hydroxyethylpiperazine-N'-2-ethanesulfonic acid (HEPES), 25 glucose pH 7.4] containing 5 μCi/ml carrier-free ^125 I^- (sodium salt). Extracellular ^125 I^- was removed by washing four times with efflux buffer, and the rate of loss of intracellular ^125 I^- was determined by replacing the bathing solution with 37° C. efflux buffer every 60 seconds for 12 minutes. Time-dependent rates of ^125 I^- efflux are calculated from R=ln(^125 I^-t1 /^125 I^-t2)/(t1-t2), where ^125 I^-t is the intracellular ^125 I^- at time t and t1 and t2 are successive time points. Dose-response curves were obtained from peak rates of 125I^- efflux by nonlinear least squares fitting to R=[Ro +Rmx ·([fsk]/K1/2)]/[1+([fsk]/K1/2)], where Ro and Rmx are the rates of ^125 I efflux at zero and infinite concentration of forskolin (fsk), and K1/2 is the concentration of agonist that gives a half-maximal change.

Sequence of ΔF508-CFTR (P13569 with tags, fused parts or gaps DEL508-508): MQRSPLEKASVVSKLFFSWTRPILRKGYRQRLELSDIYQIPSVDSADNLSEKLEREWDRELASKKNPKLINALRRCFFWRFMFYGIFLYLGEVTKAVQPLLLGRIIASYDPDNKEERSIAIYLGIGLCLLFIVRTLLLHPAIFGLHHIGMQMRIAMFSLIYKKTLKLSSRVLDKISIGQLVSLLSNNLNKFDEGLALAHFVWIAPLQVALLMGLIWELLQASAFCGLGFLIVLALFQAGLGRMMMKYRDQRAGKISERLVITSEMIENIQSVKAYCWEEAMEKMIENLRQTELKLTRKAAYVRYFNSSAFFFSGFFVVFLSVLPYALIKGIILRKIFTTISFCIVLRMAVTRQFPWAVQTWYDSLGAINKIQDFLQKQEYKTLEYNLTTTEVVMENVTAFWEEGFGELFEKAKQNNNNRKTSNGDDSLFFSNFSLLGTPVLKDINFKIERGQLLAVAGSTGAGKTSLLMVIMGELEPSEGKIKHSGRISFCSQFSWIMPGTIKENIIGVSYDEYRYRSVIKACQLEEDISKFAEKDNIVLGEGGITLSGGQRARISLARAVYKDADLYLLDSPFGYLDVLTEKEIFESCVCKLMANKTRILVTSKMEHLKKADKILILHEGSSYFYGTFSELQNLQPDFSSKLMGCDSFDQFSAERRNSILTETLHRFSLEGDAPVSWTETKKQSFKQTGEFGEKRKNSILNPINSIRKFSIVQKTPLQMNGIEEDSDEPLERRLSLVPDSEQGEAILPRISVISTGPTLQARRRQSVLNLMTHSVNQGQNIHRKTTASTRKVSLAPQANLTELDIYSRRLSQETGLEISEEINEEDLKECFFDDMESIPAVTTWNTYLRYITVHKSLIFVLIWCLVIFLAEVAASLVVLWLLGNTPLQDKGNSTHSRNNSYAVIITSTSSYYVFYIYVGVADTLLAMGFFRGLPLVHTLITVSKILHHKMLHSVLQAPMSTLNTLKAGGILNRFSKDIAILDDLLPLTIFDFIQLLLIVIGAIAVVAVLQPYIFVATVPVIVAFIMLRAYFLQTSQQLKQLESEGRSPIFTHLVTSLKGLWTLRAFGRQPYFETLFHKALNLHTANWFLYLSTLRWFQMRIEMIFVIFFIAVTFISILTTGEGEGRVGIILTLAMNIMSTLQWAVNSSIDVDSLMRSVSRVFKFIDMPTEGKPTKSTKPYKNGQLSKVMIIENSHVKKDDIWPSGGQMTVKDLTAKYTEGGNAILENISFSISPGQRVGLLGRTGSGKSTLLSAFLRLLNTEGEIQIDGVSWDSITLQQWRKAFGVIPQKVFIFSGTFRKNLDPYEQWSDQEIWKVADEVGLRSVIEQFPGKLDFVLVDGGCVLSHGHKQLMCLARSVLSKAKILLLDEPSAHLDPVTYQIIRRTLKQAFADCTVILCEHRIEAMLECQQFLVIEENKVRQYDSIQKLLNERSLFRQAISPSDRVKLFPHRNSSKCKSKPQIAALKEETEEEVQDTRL

Turning to `O=c1c(-c2ccc(O)cc2)coc2cc(O)cc(O)c12` [Genistein, 4',5,7-trihydroxyisoflavone], at ΔF508-CFTR, the “enhancement of ΔF508-CFTR channel activity by genistein” value is recorded as 19±11 fold. The “channel activity at given CFTR phosphorylation level” value in the data set with CFTR is on record as “channel activity was greater in the presence of genistein”.
